Patent publication US20250215012A1, “IKZF2 DEGRADERS AND USES THEREOF” (REGENTS OF THE UNIVERSITY OF MICHIGAN, priority 2022, published 2025)

Molecular target: IKZF2 (Homo sapiens (Human), UniProt Q96SW2+Q9UKS7)
Assay: IKZF2 HiBiT Assay (Jurkat-IKZF2-HiBiT cell line)
Format: cell-based
Settings: Jurkat-IKZF2-HiBiT cells, 24 hours; for DC50: read-out: HiBit assay degradation analysis DC50; for Dmax: read-out: HiBit assay degradation analysis Dmax
Summary of the method: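 Jurkat cells carrying HiBiT-tagged IKZF2 were exposed to serially diluted compound for 24 h at 37 °C. Remaining IKZF2 was measured by Nano-Glo HiBiT lytic luminescence after 10-20 min at room temperature. Signal was normalized to DMSO, and IC50 came from a four-parameter variable-slope fit.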

Sequence of IKZF2 (Q9UKS7 whole entry): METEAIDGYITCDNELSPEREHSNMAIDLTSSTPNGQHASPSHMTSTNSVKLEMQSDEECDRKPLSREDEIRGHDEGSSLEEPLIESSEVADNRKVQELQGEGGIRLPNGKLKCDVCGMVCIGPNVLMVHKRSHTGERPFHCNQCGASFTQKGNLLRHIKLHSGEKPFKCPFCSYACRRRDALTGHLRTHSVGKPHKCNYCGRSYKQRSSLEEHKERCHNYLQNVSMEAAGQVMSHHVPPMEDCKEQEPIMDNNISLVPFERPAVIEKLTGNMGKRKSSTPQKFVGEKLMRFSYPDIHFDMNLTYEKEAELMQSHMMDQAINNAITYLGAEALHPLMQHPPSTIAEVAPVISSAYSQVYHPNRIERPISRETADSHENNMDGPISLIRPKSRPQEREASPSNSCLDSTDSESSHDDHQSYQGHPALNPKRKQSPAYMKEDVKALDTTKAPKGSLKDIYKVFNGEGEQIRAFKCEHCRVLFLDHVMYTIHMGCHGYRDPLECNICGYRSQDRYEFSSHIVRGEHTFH
Sequence of IKZF2 (Q96SW2 whole entry): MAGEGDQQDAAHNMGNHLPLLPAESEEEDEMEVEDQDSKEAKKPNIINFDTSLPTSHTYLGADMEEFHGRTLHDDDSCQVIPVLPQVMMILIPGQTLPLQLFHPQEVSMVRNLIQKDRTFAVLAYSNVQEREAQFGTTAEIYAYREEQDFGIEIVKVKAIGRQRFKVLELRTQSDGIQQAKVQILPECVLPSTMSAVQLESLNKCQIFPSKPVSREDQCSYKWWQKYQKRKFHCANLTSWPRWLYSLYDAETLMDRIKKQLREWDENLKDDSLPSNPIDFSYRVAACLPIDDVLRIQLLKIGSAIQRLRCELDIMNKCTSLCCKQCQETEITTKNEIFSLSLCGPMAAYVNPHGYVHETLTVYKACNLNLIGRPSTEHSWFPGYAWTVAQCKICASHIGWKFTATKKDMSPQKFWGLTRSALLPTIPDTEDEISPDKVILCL
Sequence of IKZF2 (Q16531 whole entry partner): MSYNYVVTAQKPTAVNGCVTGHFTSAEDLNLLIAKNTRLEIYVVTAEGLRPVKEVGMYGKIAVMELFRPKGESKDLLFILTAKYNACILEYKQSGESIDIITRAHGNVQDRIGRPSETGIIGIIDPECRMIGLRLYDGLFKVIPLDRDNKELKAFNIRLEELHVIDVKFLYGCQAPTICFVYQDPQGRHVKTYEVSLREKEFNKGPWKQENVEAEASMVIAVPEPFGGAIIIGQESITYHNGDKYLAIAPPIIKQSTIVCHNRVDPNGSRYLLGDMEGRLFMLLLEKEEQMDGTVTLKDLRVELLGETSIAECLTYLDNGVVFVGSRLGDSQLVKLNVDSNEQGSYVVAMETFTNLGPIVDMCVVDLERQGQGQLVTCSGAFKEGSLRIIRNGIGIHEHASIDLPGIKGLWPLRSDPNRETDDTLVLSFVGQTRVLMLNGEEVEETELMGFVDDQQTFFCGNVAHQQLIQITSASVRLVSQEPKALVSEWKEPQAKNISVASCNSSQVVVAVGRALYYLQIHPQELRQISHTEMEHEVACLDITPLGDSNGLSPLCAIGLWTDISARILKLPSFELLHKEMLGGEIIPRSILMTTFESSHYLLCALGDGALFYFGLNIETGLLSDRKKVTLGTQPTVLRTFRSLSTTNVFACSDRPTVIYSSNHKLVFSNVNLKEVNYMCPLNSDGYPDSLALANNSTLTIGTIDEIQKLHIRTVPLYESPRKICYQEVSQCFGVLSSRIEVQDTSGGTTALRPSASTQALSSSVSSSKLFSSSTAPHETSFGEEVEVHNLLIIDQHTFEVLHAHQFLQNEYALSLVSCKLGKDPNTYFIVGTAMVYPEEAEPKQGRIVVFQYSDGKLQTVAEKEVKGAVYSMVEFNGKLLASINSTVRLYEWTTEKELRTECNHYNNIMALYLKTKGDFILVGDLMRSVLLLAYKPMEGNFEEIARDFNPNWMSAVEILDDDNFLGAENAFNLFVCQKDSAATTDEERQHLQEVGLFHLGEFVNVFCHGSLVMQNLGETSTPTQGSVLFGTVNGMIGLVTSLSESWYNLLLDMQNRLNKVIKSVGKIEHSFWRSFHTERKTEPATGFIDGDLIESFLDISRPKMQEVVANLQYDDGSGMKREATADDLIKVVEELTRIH

SMILES	DC50	Dmax
O=C1CCC(N2Cc3c(ccc4c3OCC43CCN(Cc4cccc(-c5cnn(C6CCOCC6)c5)c4)CC3)C2=O)C(=O)N1 (stereo not shown) [Compound A147, 3-(6-oxo-1′-(3-(1-(tetrahydro-2H-pyran-4-yl)-1H-pyrazol-4-yl)benzyl)-6,8-dihydro-2H,7H-spiro[furo[2,3-e]isoindole-3,4′-piperidin]-7-yl)piperidine-2,6-dione]	< 50 nM	60 to 80%
O=C1CCC(N2Cc3c(ccc4c3OCC43CCN(Cc4c(F)ccc5[nH]ccc45)CC3)C2=O)C(=O)N1 (stereo not shown) [Compound A137, 3-(1′-((5-fluoro-1H-indol-4-yl)methyl)-6-oxo-6,8-dihydro-2H,7H-spiro[furo[2,3-e]isoindole-3,4′-piperidin]-7-yl)piperidine-2,6-dione]	< 50 nM	60 to 80%
CC(C)c1ccc(CN2CCC3(CC2)COc2c3ccc3c2CN(C2CCC(=O)NC2=O)C3=O)cc1 (stereo not shown) [Compound A191, 3-(1′-(4-isopropylbenzyl)-6-oxo-6,8-dihydro-2H,7H-spiro[furo[2,3-e]isoindole-3,4′-piperidin]-7-yl)piperidine-2,6-dione]	> 500 nM	< 40%
O=C1CCC(N2Cc3c(ccc4c3OCC43CCN(Cc4cccn5ccnc45)CC3)C2=O)C(=O)N1 (stereo not shown) [Compound A77, 3-(1′-(imidazo[1,2-a]pyridin-8-ylmethyl)-6-oxo-6,8-dihydro-2H,7H-spiro[furo[2,3-e]isoindole-3,4′-piperidin]-7-yl)piperidine-2,6-dione]	> 500 nM	40 to 60%
O=C1CCC(N2Cc3c(ccc4c3OCCC43CCN(CC4CCCCC4)CC3)C2=O)C(=O)N1 (stereo not shown) [Compound A14, 3-(1-(cyclohexylmethyl)-7′-oxo-2′,3′,7′,9′-tetrahydro-8′H-spiro[piperidine-4,4′-pyrano[2,3-e]isoindol]-8′-yl)piperidine-2,6-dione]	> 500 nM	< 40%
O=C1CCC(N2Cc3c(ccc4c3OCC43CCN(Cc4nccc5ccccc45)CC3)C2=O)C(=O)N1 (stereo not shown) [Compound A42, 3-(1′-(isoquinolin-1-ylmethyl)-6-oxo-6,8-dihydro-2H,7H-spiro[furo[2,3-e]isoindole-3,4′-piperidin]-7-yl)piperidine-2,6-dione]	> 500 nM	< 40%
O=C1CCC(N2Cc3c(ccc4c3OCCC43CCN(Cc4ccc(C(F)F)cc4)CC3)C2=O)C(=O)N1 (stereo not shown) [Compound A9, 3-(1-(4-(difluoromethyl)benzyl)-7′-oxo-2′,3′,7′,9′-tetrahydro-8′H-spiro[piperidine-4,4′-pyrano[2,3-e]isoindol]-8′-yl)piperidine-2,6-dione]	> 500 nM	< 40%
COc1cc(CN2CCC3(CC2)COc2c3ccc3c2CN([C@H]2CCC(=O)NC2=O)C3=O)cc(-c2cnn(C3COC3)c2)c1 [Compound A277]	< 50 nM	> 80%
O=C1CCC(N2Cc3c(ccc4c3OCC43CCN(Cc4nc(-c5ccccc5)cs4)CC3)C2=O)C(=O)N1 (stereo not shown) [Compound A85, 3-(6-oxo-1′-((4-phenylthiazol-2-yl)methyl)-6,8-dihydro-2H,7H-spiro[furo[2,3-e]isoindole-3,4′-piperidin]-7-yl)piperidine-2,6-dione]	> 500 nM	< 40%
O=C1CCC(N2Cc3c(ccc4c3OCC43CCN(Cc4ccnc5[nH]ccc45)CC3)C2=O)C(=O)N1 (stereo not shown) [Compound A73, 3-(1′-((1H-pyrrolo[2,3-b]pyridin-4-yl)methyl)-6-oxo-6,8-dihydro-2H,7H-spiro[furo[2,3-e]isoindole-3,4′-piperidin]-7-yl)piperidine-2,6-dione]	> 500 nM	40 to 60%
O=C1CCC(N2Cc3c(ccc4c3OCC43CCN(CC4CCC(c5ccccc5)CC4)CC3)C2=O)C(=O)N1 (stereo not shown) [Compound A89, 3-(6-oxo-1′-((4-phenylcyclohexyl)methyl)-6,8-dihydro-2H,7H-spiro[furo[2,3-e]isoindole-3,4′-piperidin]-7-yl)piperidine-2,6-dione]	50 to 200 nM	60 to 80%
O=C1CC[C@H](N2Cc3c(ccc4c3OCC43CCN(Cc4cccc(-c5cnn(C6COC6)c5)c4)CC3)C2=O)C(=O)N1 [Compound A265, (S)-3-(1′-(3-(1-(oxetan-3-yl)-1H-pyrazol-4-yl)benzyl)-6-oxo-6,8-dihydro-2H,7H-spiro[furo[2,3-e]isoindole-3,4′-piperidin]-7-yl)piperidine-2,6-dione]	< 50 nM	60 to 80%
O=C1CCC(N2Cc3c(ccc4c3OCC43CCN(CC4CCCC(c5ccccc5)C4)CC3)C2=O)C(=O)N1 (stereo not shown) [Compound A181, 3-(6-oxo-1′-((3-phenylcyclohexyl)methyl)-6,8-dihydro-2H,7H-spiro[furo[2,3-e]isoindole-3,4′-piperidin]-7-yl)piperidine-2,6-dione]	200 to 500 nM	40 to 60%
Cn1ncc2cc(F)c(CN3CCC4(CC3)COc3c4ccc4c3CN(C3CCC(=O)NC3=O)C4=O)cc21 (stereo not shown) [Compound A140, 3-(1′-((5-fluoro-1-methyl-1H-indazol-6-yl)methyl)-6-oxo-6,8-dihydro-2H,7H-spiro[furo[2,3-e]isoindole-3,4′-piperidin]-7-yl)piperidine-2,6-dione]	> 500 nM	40 to 60%
O=C1CCC(N2Cc3c(ccc4c3OCC43CCN(Cc4ccn(-c5cccc(F)c5)n4)CC3)C2=O)C(=O)N1 (stereo not shown) [Compound A316, 3-(1′-((1-(3-fluorophenyl)-1H-pyrazol-3-yl)methyl)-6-oxo-6,8-dihydro-2H,7H-spiro[furo[2,3-e]isoindole-3,4′-piperidin]-7-yl)piperidine-2,6-dione]	> 500 nM	40 to 60%
O=C1CCC(N2Cc3c(ccc4c3OCC43CCN(Cc4cccn5nccc45)CC3)C2=O)C(=O)N1 (stereo not shown) [Compound A58, 3-(6-oxo-1′-(pyrazolo[1,5-a]pyridin-4-ylmethyl)-6,8-dihydro-2H,7H-spiro[furo[2,3-e]isoindole-3,4′-piperidin]-7-yl)piperidine-2,6-dione]	> 500 nM	40 to 60%
O=C1CCC(N2Cc3c(ccc4c3OCC43CCN(Cc4ccc5c(c4)OC(F)(F)O5)CC3)C2=O)C(=O)N1 (stereo not shown) [Compound A193, 3-(1′-((2,2-difluorobenzo[d][1,3]dioxol-5-yl)methyl)-6-oxo-6,8-dihydro-2H,7H-spiro[furo[2,3-e]isoindole-3,4′-piperidin]-7-yl)piperidine-2,6-dione]	> 500 nM	< 40%
O=C1CCC(N2Cc3c(ccc4c3OCC43CCN(Cc4ccc5occc5c4)CC3)C2=O)C(=O)N1 (stereo not shown) [Compound A120, 3-(1′-(benzofuran-5-ylmethyl)-6-oxo-6,8-dihydro-2H,7H-spiro[furo[2,3-e]isoindole-3,4′-piperidin]-7-yl)piperidine-2,6-dione]	< 50 nM	60 to 80%
O=C1CCC(N2Cc3c(ccc4c3OCC43CCN(Cc4ncsc4-c4ccccc4)CC3)C2=O)C(=O)N1 (stereo not shown) [Compound A158, 3-(6-oxo-1′-((5-phenylthiazol-4-yl)methyl)-6,8-dihydro-2H,7H-spiro[furo[2,3-e]isoindole-3,4′-piperidin]-7-yl)piperidine-2,6-dione]	> 500 nM	< 40%
O=C1CCC(N2Cc3c(ccc4c3OCC43CCN(Cc4c[nH]c(-c5ccccc5)n4)CC3)C2=O)C(=O)N1 (stereo not shown) [Compound A84, 3-(6-oxo-1′-((2-phenyl-1H-imidazol-4-yl)methyl)-6,8-dihydro-2H,7H-spiro[furo[2,3-e]isoindole-3,4′-piperidin]-7-yl)piperidine-2,6-dione]	> 500 nM	40 to 60%
CN(C)C(=O)c1ccc(CN2CCC3(CC2)COc2c3ccc3c2CN(C2CCC(=O)NC2=O)C3=O)cc1 (stereo not shown) [Compound A201, 4-((7-(2,6-dioxopiperidin-3-yl)-6-oxo-7,8-dihydro-2H,6H-spiro[furo[2,3-e]isoindole-3,4′-piperidin]-1′-yl)methyl)-N,N-dimethylbenzamide]	> 500 nM	< 40%
CC(C)n1cc(-c2cccc(CN3CCC4(CC3)COc3c4ccc4c3CN(C3CCC(=O)NC3=O)C4=O)c2)cn1 (stereo not shown) [Compound A146, 3-(1′-(3-(1-isopropyl-1H-pyrazol-4-yl)benzyl)-6-oxo-6,8-dihydro-2H,7H-spiro[furo[2,3-e]isoindole-3,4′-piperidin]-7-yl)piperidine-2,6-dione]	< 50 nM	60 to 80%
CC1(C)CCC(CN2CCC3(CC2)COc2c3ccc3c2CN(C2CCC(=O)NC2=O)C3=O)CC1 (stereo not shown) [Compound A19, 3-(1′-((4,4-dimethylcyclohexyl)methyl)-6-oxo-6,8-dihydro-2H,7H-spiro[furo[2,3-e]isoindole-3,4′-piperidin]-7-yl)piperidine-2,6-dione]	> 500 nM	< 40%
Cc1cc(CN2CCC3(CC2)COc2c3ccc3c2CN([C@H]2CCC(=O)NC2=O)C3=O)cc(-c2cnn(C3COC3)c2)c1 [Compound A279, (S)-3-(1′-(3-methyl-5-(1-(oxetan-3-yl)-1H-pyrazol-4-yl)benzyl)-6-oxo-6,8-dihydro-2H,7H-spiro[furo[2,3-e]isoindole-3,4′-piperidin]-7-yl)piperidine-2,6-dione]	< 50 nM	60 to 80%
Cn1c(=O)oc2ccc(CN3CCC4(CC3)COc3c4ccc4c3CN(C3CCC(=O)NC3=O)C4=O)cc21 (stereo not shown) [Compound A175, 3-(1′-((3-methyl-2-oxo-2,3-dihydrobenzo[d]oxazol-5-yl)methyl)-6-oxo-6,8-dihydro-2H,7H-spiro[furo[2,3-e]isoindole-3,4′-piperidin]-7-yl)piperidine-2,6-dione]	> 500 nM	< 40%
COc1cc(CN2CCC3(CC2)COc2c3ccc3c2CN([C@H]2CCC(=O)NC2=O)C3=O)cc(-c2cnn(C)c2)c1 [Compound A280, (S)-3-(1′-(3-methoxy-5-(1-methyl-1H-pyrazol-4-yl)benzyl)-6-oxo-6,8-dihydro-2H,7H-spiro[furo[2,3-e]isoindole-3,4′-piperidin]-7-yl)piperidine-2,6-dione]	< 50 nM	> 80%
